Reference: patent publication US20220372585A1, “Sensors for Aromatic Compounds and Methods of Making and Using Same” (Washington University, priority 2021, published 2022)
Where a chain is given by its changes, count along the chain named. Values joined by “and” are separate entries in the source; they are usually repeats but may differ in a detail not shown here. Identical values can stand only once. “Also recorded” adds a separate entry of the source.

How the values were obtained:
WT TrpR = molecular target: T1, WT TrpR (Escherichia coli, UniProt P0A881); experiment: WT TrpR system, repression of GFP expression; format: cell-based, E. coli
T1 construct: trpR (WT); expressed in transfected cells; host or cells: E. coli Nissle 1917 (EcN), genomic trpR knocked out; plasmid pMBA035 (P17-trpR)
Source text: Among the various aspects of the present disclosure is the provision of systems and methods for detecting aromatic compounds. An aspect of the present disclosure provides for a method of protein engineering (e.g., a regulator protein) comprising: mutagenizing specific amino acids in and around a ligand-binding site of a protein, wherein the mutagenizing enables changes in ligand-protein binding specificity while maintaining protein-DNA interaction and thus downstream gene expression control; and/or linking ligand-protein binding to output response. An aspect of the present disclosure provides for an engineered molecular sensor. […] In some embodiments, the engineered regulator protein or the ligand-protein binding site or a sequence encoding the engineered regulator protein or the ligand-protein binding site of the engineered regulator protein is at least about 80% identical to a WT regulator protein or a WT regulator ligand-protein binding site; or a sequence encoding the engineered regulator protein or ligand binding site thereof is at least about 80% identical to a sequence encoding the WT regulator protein or the WT regulator ligand-protein binding site; or functional fragment thereof, the engineered regulator protein having ligand binding activity. In some embodiments, the engineered molecular sensor is optionally genomically integrated into a microorganism, optionally selected from a probiotic or is a purified cell-free sensor. In some embodiments, the engineered regulator protein or enzyme is an engineered TrpR, TyrR, TynA, or FeaR protein. […] In some embodiments, the engineered regulator protein is an engineered TrpR and is a tryptophan (Trp)-, 5-hydroxytryptophan (5-HTP)-, or tryptamine (Trpta)-specific sensor. In some embodiments, the engineered regulator protein or enzyme is an engineered TrpR, TyrR, TynA, or FeaR, and/or wherein the engineered TrpR, TyrR, TynA, or FeaR comprises at least one mutation to a ligand-protein binding site having specific amino acid binding activity. […]

TrpR variant OD = molecular target: T2, TrpR variant OD (Escherichia coli, UniProt P0A881, A80L/G78C/I79C/K72S/T83R); experiment: TrpR OD variant with synthetic Ptrp promoter, repression of GFP expression; format: cell-based, E. coli
T2 construct: trpR (OD); expressed in transfected cells; host or cells: E. coli Nissle 1917 (EcN), genomic trpR knocked out; plasmid pMBA103 (P17-trpR(OD))
Source text: (§1) Among the various aspects of the present disclosure is the provision of systems and methods for detecting aromatic compounds. An aspect of the present disclosure provides for a method of protein engineering (e.g., a regulator protein) comprising: mutagenizing specific amino acids in and around a ligand-binding site of a protein, wherein the mutagenizing enables changes in ligand-protein binding specificity while maintaining protein-DNA interaction and thus downstream gene expression control; and/or linking ligand-protein binding to output response. An aspect of the present disclosure provides for an engineered molecular sensor. […] In some embodiments, the engineered regulator protein or the ligand-protein binding site or a sequence encoding the engineered regulator protein or the ligand-protein binding site of the engineered regulator protein is at least about 80% identical to a WT regulator protein or a WT regulator ligand-protein binding site; or a sequence encoding the engineered regulator protein or ligand binding site thereof is at least about 80% identical to a sequence encoding the WT regulator protein or the WT regulator ligand-protein binding site; or functional fragment thereof, the engineered regulator protein having ligand binding activity. […]

TrpR variant O1 = molecular target: T3, TrpR variant O1 (Escherichia coli, UniProt P0A881, A80R/G78N/I79W/K72S/T83K); experiment: TrpR O1 variant with synthetic Ptrp promoter, repression of GFP expression; format: cell-based, E. coli
T3 construct: trpR (O1); expressed in transfected cells; host or cells: E. coli Nissle 1917 (EcN), genomic trpR knocked out; plasmid pMBA173 (P17-trpR(O1))
Source text: as §1

[1] = system: TynA-FeaR sensors (best performing variants); experiment: TynA-FeaR sensor activity and specificity in richer media, amines and carboxylic acids; format: cell-based, E. coli; conditions: 1 mM, 24 h; minimal medium with casamino acids and LB medium; FIG. 29
Source text: FIG. 29A-FIG. 29B. TynA-FeaR sensor activity and specificity in richer media, related to FIG. 6A-FIG. 6E. […] PtynA was regulated by the specified variants of TynA and FeaR. The response of the G494S TynA mutant sensors was not determined (ND) for DOPAC, PAA, HPAA, or IAA. Values and error bars are the average and standard deviation of biological triplicate, respectively.
To further confirm the specificity of the best performing sensors, the response of each to the four amines and the four respective carboxylic acids, 3,4-dihydroxyphenylacetic acid (DOPAC), phenylacetic acid (PAA), 4-hydroxyphenylacetic acid (HPAA), and indole-3-acetic acid (IAA) was tested in minimal medium with casamino acids and LB medium (see e.g., FIG. 29A-FIG. 29B). […] All mutant sensors remained specific to PEA or Tyra in minimal medium with casamino acids.
(§2) Flow cytometry was performed as previously described. […] Cytometry data was gated by forward and side scatter.

[2] = system: G494S TynA with A81T FeaR; format: cell-based, E. coli MG1655; conditions: G494S*; 24 h; FIG. 4C
Procedure: as §2

[3] = system: wild-type TynA and A81L FeaR; experiment: microbe, parasite or virus in culture; format: cell-based, E. coli MG1655; conditions: A81L FeaR; 24 h; FIG. 5C
Procedure: as §2

E274Q+D103S TyrR = molecular target: T4, E274Q+D103S TyrR (Escherichia coli, UniProt P07604, D103S/E274Q); experiment: cell-based; format: cell-based, E. coli; conditions: ligand alone, listed as Tyr
T4 construct: expressed in transfected cells; host or cells: E. coli Nissle 1917 (EcN), plasmid pAGR159
T4 sequence (P07604 whole entry D103S/E274Q): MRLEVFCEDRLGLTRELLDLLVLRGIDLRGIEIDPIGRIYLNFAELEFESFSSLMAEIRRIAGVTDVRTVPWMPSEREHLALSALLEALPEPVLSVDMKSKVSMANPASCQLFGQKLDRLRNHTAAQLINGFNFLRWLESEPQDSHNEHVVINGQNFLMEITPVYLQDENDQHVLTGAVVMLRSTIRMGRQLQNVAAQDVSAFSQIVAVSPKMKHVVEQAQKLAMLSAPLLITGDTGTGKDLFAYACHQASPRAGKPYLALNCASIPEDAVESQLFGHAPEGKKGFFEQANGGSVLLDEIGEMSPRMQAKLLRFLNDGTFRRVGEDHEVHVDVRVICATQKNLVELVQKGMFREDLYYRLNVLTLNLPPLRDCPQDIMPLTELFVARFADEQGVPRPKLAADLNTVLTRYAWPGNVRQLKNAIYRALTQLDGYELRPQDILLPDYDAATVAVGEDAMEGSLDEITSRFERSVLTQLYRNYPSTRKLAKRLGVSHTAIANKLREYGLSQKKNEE
Procedure: (§3) Everything but (Eb) medium was prepared by supplementing M9 minimal medium with 1 mM MgSO4, […]), 0.4% w/v glucose, and all non-aromatic amino acids (0.8 mM alanine, 5 mM arginine, 0.4 mM asparagine, 0.4 mM aspartate, 0.1 mM cysteine, 0.6 mM glutamate, 0.6 mM glutamine, 0.8 mM glycine, 0.2 mM histidine, 0.4 mM isoleucine, 0.8 mM leucine, 0.4 mM lysine, 0.2 mM methionine, 0.4 mM proline, 10 mM serine, 0.4 mM threonine, and 0.6 mM valine). […] Experimental cultures were prepared by diluting overnight cultures 200× into 0.6 mL fresh Eb medium supplemented with the respective ligands (Phe and Tyr) in 2 mL 96-deep well plates (Eppendorf, Hamburg, Germany). Cultures were grown for 8 h at 37° C. and 250 rpm before sampled for fluorimetry or flow cytometry analysis. All medium was supplemented with the relevant antibiotics for plasmid maintenance ([…]).
(§4) […] culture samples were collected and transferred to 96-well assay microplates (clear, flat bottom black, Greiner Bio-One). The fluorescence and culture absorbance (Abs) were measured using a Tecan microplate reader (Infinite M200 Pro) as previously described. The fluorescence of GFP was measured with an excitation at 483 nm and emission at 530 nm. The Abs of the samples was measured at 600 nm. The measured fluorescence was normalized by dividing by the Abs and subtracting the same ratio obtained from non-fluorescent wild-type cells (Equation 1).
as §2

R10F TyrR = molecular target: T5, R10F TyrR (Escherichia coli, UniProt P07604, R10F); experiment: cell-based; format: cell-based, E. coli
T5 construct: expressed in transfected cells; host or cells: E. coli Nissle 1917 (EcN), plasmid pAGR473
T5 sequence (P07604 whole entry R10F): as the sequence (P07604 whole entry D103S/E274Q) above, with R10F, S103D, Q274E counted along it
Procedure: as §3, §4, §2

E274Q+T14V TyrR = molecular target: T6, E274Q+T14V TyrR (Escherichia coli, UniProt P07604, E274Q/T14V); experiment: cell-based; format: cell-based, E. coli; conditions: ligand alone, listed as Tyr
T6 construct: expressed in transfected cells; host or cells: E. coli Nissle 1917 (EcN), plasmid pAGR157
T6 sequence (P07604 whole entry T14V/E274Q): as the sequence (P07604 whole entry D103S/E274Q) above, with T14V, S103D counted along it
Procedure: as §3, §4, §2

wild-type TyrR = molecular target: T7, wild-type TyrR (Escherichia coli, UniProt P07604); experiment: cell-based; format: cell-based, E. coli
T7 construct: tyrR (WT); expressed in transfected cells; host or cells: E. coli Nissle 1917 (EcN)
T7 sequence (P07604 whole entry): as the sequence (P07604 whole entry D103S/E274Q) above, with S103D, Q274E counted along it
Procedure: as §3, §4, §2

PtynA = experiment: Ligand specificity of 20 FeaR variants at the 81st position with wild-type TynA, fluorescence from PtynA; format: cell-based, E. coli; conditions: 0.25 mM DA, PEA, Tyra, Trypta, 24 h
Source text: FIG. 5A-FIG. 5D. Engineering FeaR to identify improved phenylethylamine-specific sensors (A) Computationally predicted ligand-binding region of FeaR. Key residues are shown with (magenta) and without (green) phenylethylamine-aldehyde (PEA-aldehyde; cyan) complexed. The structure was predicted using the Robetta web server. Ligand docking was modeled using the Rosetta Ligand Docking Server hosted by ROSIE. The image was generated using PyMOL. […] PtynA was regulated by wild-type TynA and 20 different FeaR variants with the specified amino acid in the 81st position. Residues for each group are listed from left to right in order of increasing size. Non-zero values and error bars are the average and standard deviation of biological triplicate, respectively. Variants with significant expression in response to PEA were determined by unpaired t tests (p<0.05). (C) Transfer curve of PtynA after 24 h of induction with DA, PEA, Tyra, and Trypta. PtynA was regulated by wild-type TynA and the A81L FeaR mutant. Points represent experimental data while the line represents the fitted curve (see e.g., TABLE 2). […] Values and error bars are the average and standard deviation of biological triplicate, respectively. (D) Reorganization of […] with respect to the size and hydropathy index of the 81st residue (see e.g., TABLE 3). The blue area represents characteristic values that permit binding of Tyra. See also FIG. 20-FIG. 25.
Noting the PEA selectivity given by the A81T mutation and the smallest size of the PEA-aldehyde (no OH group), followed by that of Tyra—(1 OH), DA—(2 OHs), and Trypta—(additional 5-membered ring) aldehyde (see e.g., FIG. 3A), it was hypothesized that small residues, including alanine as in wild-type FeaR, would cause ligand promiscuity, with ligand size-dependent response as shown in FIG. 3D. Slightly larger residues such as threonine would have improved selectivity toward the smallest PEA-aldehyde, but much larger or charged residues may fully eliminate ligand binding. It was also hypothesized that the hydropathy index of the 81st residue may also play a role in the sensor's performance due to differences in ligand polarities caused by the different number of hydroxyl groups. […] To test this prediction, A81 was mutated and each mutant was paired with the promiscuous wild-type TynA (see e.g., FIG. 5B). Consistent with the predictions, A81L, A81P, A81 I, and A81N were identified as PEA-specific variants, with 580-fold induction for the A81L sensor (see e.g., FIG. 5C). […] As predicted a clear pattern between the identity of residue 81 and ligand selectivity was observed (see e.g., FIG. 5D, TABLE 3).
as §2

[4] = pAGR473, FIG. 2G, 8 h, repressible
[5] = wild-type TyrR, pAGR010, FIG. 1C, 8 h

In the case of `N[C@@H](Cc1c[nH]c2ccc(O)cc12)C(=O)O` [5-HTP, 5-hydroxytryptophan], the “fold repression of GFP expression” value (WT TrpR) is reported as 20 fold, the fold repression (TrpR variant OD) is reported as “about 7 fold” and the fold repression (TrpR variant O1) is reported as “about 15 fold”.

`O=C(O)Cc1ccc(O)c(O)c1` [DOPAC, 3,4-dihydroxyphenylacetic acid] was tested, and the “response of the sensors” value [1] was “No sensors significantly responded”.

`O=C(O)Cc1ccc(O)cc1` [HPAA, 4-hydroxyphenylacetic acid] was tested, and the “response of the sensors” value [1] was “No sensors significantly responded”.

With `O=C(O)Cc1c[nH]c2ccccc12` [IAA, indole-3-acetic acid] the “response of the sensors” value [1] was “No sensors significantly responded”.

For `O=C(O)Cc1ccccc1` [PAA, phenylacetic acid], the “response of the sensors” value [1] was “No sensors significantly responded”.

In the case of `N[C@@H](Cc1ccc(O)cc1)C(=O)O` [Tyrosine, tyrosine], the response [2] is reported as “lack of response”, the response [3] is reported as “lack of response” and the “response of PtyrP” value (E274Q+D103S TyrR) is reported as “lack of response; also recorded: no apparent response”. For the same molecule, the EC50 (R10F TyrR; KA (half maximal constant), pAGR473, FIG. 2G, 8 h, repressible) was 50 µM and 47 µM, the “fold repression of PtyrP” value (R10F TyrR; independent of the presence of Phe, listed as Tyr) was ~12 fold and 15 fold and the Fmax (R10F TyrR; [4]) was 3210. For the same molecule, the Fmin (R10F TyrR; [4]) was 279, the “n (Hill coefficient)” value (R10F TyrR; [4]) was 2.3 and the “response of PtyrP” value (E274Q+T14V TyrR) was “lack of response; also recorded: no apparent response”. The “fold repression of PtyrP” value (wild-type TyrR; overexpression of wild-type TyrR) was 59 fold, the Fmax (wild-type TyrR; [5]) was 2470 and the Fmin (wild-type TyrR; [5]) was 38.1. The “n (Hill coefficient)” value (wild-type TyrR; [5]) was 1.9 and the EC50 (wild-type TyrR; wild-type TyrR, pAGR010, FIG. 1C, 8 h, read-out: KA (half maximal constant)) was 26 µM.

B1: Leucine (L): FeaR variant with leucine in the 81st position, paired with wild-type TynA (protein, UniProt Q47129 1-301, looked up, variant A81L)
Transcriptional activator FeaR: MNPAVDNEFQQWLSQINQVCGNFTGRLLTERYTGVLDTHFAKGLKLSTVTTSGVNLSRTWQEVKGSDDAWFYTVFQLSGQLIMEQDERQVQIGAGDITLLDASRPCSLYWQESSKQISLLLPRTLLEQYFPHQKPICAERLDADLPMVQLSHRLLQESMNNPALSETESEAALQAMVCLLRPVLHQRESVQPRRERQFQKVVTLIDDNIREEILRPEWIAGETGMSVRSLYRMFADKGLVVAQYIRNRRLDFCADAIRHAADDEKLAGIGFHWGFSDQSHFSTVFKQRFGMTPGEYRRKFR
In the case of B1, the Phenotype (PtynA) is reported as “PEA specific” and the Selectivity (PtynA) is reported as “PEA only”.

B2: Phenylalanine (F): FeaR variant with phenylalanine in the 81st position, paired with wild-type TynA (protein, UniProt Q47129 1-301, looked up, variant A81F)
Transcriptional activator FeaR: B1 Transcriptional activator FeaR with L81F
In the case of B2, the Phenotype (PtynA) is reported as “No activity” and the Selectivity (PtynA) is reported as “No activity”.

B3: Glutamine (Q): FeaR variant with glutamine in the 81st position, paired with wild-type TynA (protein, UniProt Q47129 1-301, looked up, variant A81Q)
Transcriptional activator FeaR: B1 Transcriptional activator FeaR with L81Q
For B3, the Phenotype (PtynA) was “No activity” and the Selectivity (PtynA) was “No activity”.
